Key:
[1] = Viscosity measurement of octreotide acetate physiologically active composition (micron sample viscometer); assay type: physicochemical; details: 25° C.
Procedure: The octreotide acetate concentration and the propylene glycol or glycerin concentration were adjusted as shown in Table 3 and Table 4 to prepare a physiologically active composition. The viscosity of the obtained physiologically active composition was measured ten times with a micron sample viscometer (RHEOSENSE INC., Micron Sample-Viscometer/Rheometer-on-a-chip VROCTM), and the mean value was calculated to be shown in Table 3 and Table 4.

[2] = Viscosity imparting test in nonaqueous formulation (polymer compound solubility and viscosity); assay type: physicochemical; details: 25° C.
Procedure: With respect to each solvent of propylene glycol and glycerin, polymer compounds shown in Table 5 and Table 6 were added to prepare mixed solutions. Each concentration of the polymer compounds was designed in consideration of the molecular weight and the like. […] Separately, the viscosity of the mixed solution or the solution after the stirring was determined with a micron sample viscometer at 25° C.

Compound | Viscosity Avg. ([1]; octreotide acetate 20 / glycerin 80 % by weight) | Viscosity Avg. ([1]; octreotide acetate 20 / propylene glycol 80 % by weight) | Viscosity Avg. ([1]; octreotide acetate 30 / glycerin 70 % by weight) | Viscosity Avg. ([1]; octreotide acetate 35 / glycerin 65 % by weight) | Viscosity Avg. ([1]; octreotide acetate 40 / glycerin 60 % by weight) | Viscosity Avg. ([1]; octreotide acetate 40 / propylene glycol 60 % by weight) | Viscosity Avg. ([1]; octreotide acetate 50 / glycerin 50 % by weight) | Viscosity Avg. ([1]; octreotide acetate 50 / propylene glycol 50 % by weight) | Viscosity Avg. ([1]; octreotide acetate 60 / glycerin 40 % by weight) | Viscosity Avg. ([1]; octreotide acetate 60 / propylene glycol 40 % by weight) | Viscosity Avg. ([1]; octreotide acetate 70 / propylene glycol 30 % by weight) | Viscosity Avg. ([1]; octreotide acetate 80 / propylene glycol 20 % by weight) | Viscosity ([2]; glycerin, additive concentration 0.5 % by mass) | Viscosity ([2]; propylene glycol, additive concentration 1.0 % by mass)
C[C@@H](O)[C@@H]1NC(=O)[C@H](CCCCN)NC(=O)[C@@H](Cc2c[nH]c3ccccc23)NC(=O)[C@H](Cc2ccccc2)NC(=O)[C@@H](NC(=O)[C@H](N)Cc2ccccc2)CSSC[C@@H](C(=O)N[C@H](CO)[C@@H](C)O)NC1=O [Octreotide acetate] | 2,900 cps | 200 cps | 9,000 cps | 12,000 cps | 15,000 cps | 1,600 cps | 21,000 cps | 5,400 cps | 27,000 cps | 15,000 cps | 45,000 cps | 133,000 cps |  | 
Protamine |  |  |  |  |  |  |  |  |  |  |  |  | 1,442 mPa · s | 53 mPa · s

— patent US20130041330A1, “MICRO-NEEDLE DEVICE AND PREPARATION METHOD” (HISAMITSU PHARMACEUTICAL CO., INC., priority 2010, published 2013)
